Molecules are shown by their SMILES. “And” between values parts separate entries of the source, which are not always exact repeats. Equal values may be shown once.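 Tested at 5 concentrations; 48 h exposure; 96-well plates; endpoints linearly interpolated, else capped at highest concentration. Abbreviation: GI50, concentration required for 50% inhibition of growth. Definition used: TGI = concentration required for complete inhibition of growth.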 Where only a bound is given, the exact number is not on record here.

Among the test systems are SN12C renal; SR leukemia; M14 melanoma; HOP-92 NSCLC; CAKI-1 renal; U251 CNS; NCI-H23 lung; NCI/ADR-RES ovarian; 786-0 renal; BT-549 breast; RXF 393 renal.
What all share (assay): NCI-60 cell line screen, 48 h

As to `O=P(Nc1ccc(Cl)cc1)(Oc1ccccc1)N(CCCl)CCCl` (stereo not drawn), the TGI in the experiment with SN12C renal, in the experiment with SR leukemia, with M14 melanoma, in the experiment with HOP-92 NSCLC, in the experiment on CAKI-1 renal and in the experiment on U251 CNS was over 100 µM in each case. Besides, the TGI in the experiment with NCI-H23 lung was over 100 µM.

For the compound `CC12C(=O)CC(CC1=O)C2(C)C`, the TGI in the experiment with SN12C renal, with NCI/ADR-RES ovarian, in the experiment with 786-0 renal, in the experiment with M14 melanoma, in the experiment with HOP-92 NSCLC and in the experiment with BT-549 breast was over 100 µM each time. In the experiment on CAKI-1 renal, the TGI is over 100 µM.

In the case of `Cc1c(S(=O)(=O)/N=C(\NO)Nc2ccc(Cl)c(Cl)c2)sc2ccc(Cl)cc12`, the TGI in the experiment with SN12C renal stood at 35.8 µM; in the experiment on RXF 393 renal it was 34 µM; in the experiment on NCI/ADR-RES ovarian, 41.7 µM; in the experiment on 786-0 renal it was 39.6 µM; in the experiment with M14 melanoma, 44.1 µM; in the experiment on HOP-92 NSCLC, 43.8 µM. The TGI amounted to 34 µM in the experiment on BT-549 breast, 38.2 µM in the experiment on CAKI-1 renal, 49.9 µM with U251 CNS and 36.6 µM in the experiment on NCI-H23 lung.

With `CC(=O)OC(/C=C/c1ccccc1)=C(OC(C)C)/C1=C(\c2ccccc2)SCCCSC1=O`, the TGI in the experiment on RXF 393 renal, with NCI/ADR-RES ovarian, in the experiment on 786-0 renal, in the experiment on M14 melanoma, in the experiment on HOP-92 NSCLC and in the experiment on BT-549 breast was over 100 µM in each case. Further, the TGI in the experiment with CAKI-1 renal, in the experiment with U251 CNS and in the experiment with NCI-H23 lung was over 100 µM each time.

With `CC1NC(=O)CC(c2ccccc2)N(N=O)C1c1ccccc1` (stereo not drawn), the TGI in the experiment with SN12C renal was over 100 µM; in the experiment with RXF 393 renal it was 53.5 µM; in the experiment on NCI/ADR-RES ovarian, over 62.9 µM; in the experiment with HOP-92 NSCLC it was over 100 µM; with CAKI-1 renal it was over 100 µM; in the experiment on U251 CNS it was over 100 µM. The compound further came in with a TGI in the experiment on NCI-H23 lung of over 100 µM.

In the case of `Cc1nc(-c2cc3cc([N+](=O)[O-])ccc3oc2=O)cs1`, the TGI with SN12C renal, in the experiment with RXF 393 renal, with SR leukemia, with 786-0 renal, in the experiment with M14 melanoma and in the experiment with HOP-92 NSCLC was over 100 µM throughout. The TGI in the experiment with BT-549 breast, in the experiment on CAKI-1 renal and with U251 CNS was over 100 µM each time.

As to `O=Cc1ccc2c(c1)CC1(Cc3ccccc3C1)C2`, the TGI with SN12C renal was 34.4 µM; in the experiment with RXF 393 renal it was over 100 µM; in the experiment with NCI/ADR-RES ovarian it was 79.8 µM; with SR leukemia, 18.4 µM; with 786-0 renal, 29.9 µM; in the experiment on M14 melanoma, 26.8 µM. In addition, the TGI with HOP-92 NSCLC turned out to be 32.9 µM; with U251 CNS, 36.2 µM; with NCI-H23 lung it was 50 µM.

For the compound `CCN(CC)C(=S)N/N=C(/C)c1cccc(/C(C)=N\NC(=S)N(CC)CC)n1`, the TGI with SN12C renal was 12.4 µM; in the experiment with RXF 393 renal, 7.03 µM; with NCI/ADR-RES ovarian it was 10.5 µM; with SR leukemia it was 2.4 µM; with 786-0 renal it was 11.5 µM; with M14 melanoma, 3.63 µM. Further, the TGI with HOP-92 NSCLC amounted to 7.74 µM; in the experiment with CAKI-1 renal it was 5.29 µM; in the experiment with U251 CNS, 8.74 µM; with NCI-H23 lung, 19.2 µM.

For `O=C1/C(=N/O)Cc2c(Br)ccc(Br)c21`, the TGI is over 100 µM in the experiment with RXF 393 renal; over 100 µM in the experiment with NCI/ADR-RES ovarian; 74.4 µM in the experiment on SR leukemia; over 100 µM with 786-0 renal; over 100 µM with M14 melanoma; over 100 µM with HOP-92 NSCLC. In addition, the TGI in the experiment with CAKI-1 renal, with U251 CNS and with NCI-H23 lung was over 100 µM in each case.

Take `NC(N)=NCCC[C@H](N)C(=O)NCC(=O)N[C@@H](CC(=O)O)c1ncc(NC(=O)C(F)(F)F)o1`: the TGI with RXF 393 renal, in the experiment on NCI/ADR-RES ovarian, in the experiment with 786-0 renal, with M14 melanoma, in the experiment on BT-549 breast and with U251 CNS was over 25 µM throughout. This compound also displayed a TGI in the experiment on NCI-H23 lung of over 25 µM.

Turning to `NC(N)=N/N=C/c1c[nH]c2ccccc12`, the TGI in the experiment with SN12C renal, in the experiment with RXF 393 renal, in the experiment on SR leukemia, in the experiment with 786-0 renal, with M14 melanoma and with CAKI-1 renal was over 100 µM each time. The TGI in the experiment with U251 CNS and in the experiment with NCI-H23 lung was over 100 µM in each case.

With `Nc1nc(N)c2ncn(-c3ccc(Cl)cc3)c2n1`, the TGI in the experiment on SN12C renal was over 100 µM; in the experiment on RXF 393 renal, 73.5 µM; in the experiment with NCI/ADR-RES ovarian, over 100 µM; in the experiment on 786-0 renal, over 100 µM; in the experiment on M14 melanoma it was over 100 µM; in the experiment with HOP-92 NSCLC, over 100 µM. The TGI in the experiment with CAKI-1 renal, in the experiment with U251 CNS and in the experiment with NCI-H23 lung was over 100 µM throughout.

For `O=C1C=CC[C@H]2O[C@@H](COC(=O)Cc3ccccc3)C[C@H]2O1`, the TGI in the experiment on SN12C renal, with NCI/ADR-RES ovarian, in the experiment with SR leukemia, in the experiment on M14 melanoma, with HOP-92 NSCLC and in the experiment with CAKI-1 renal was over 100 µM each time. Moreover, the TGI in the experiment with NCI-H23 lung amounted to 66.6 µM.

In the case of `CC1OC(OC2C(O[C@H]3CC[C@@]4(C)C(=CC[C@H]5[C@@H]6C[C@@H]7O[C@]8(CC[C@@H](CO)CO8)[C@@H](C)[C@@H]7[C@@]6(C)CC[C@@H]54)C3)OC(CO)C(O)C2OC2OC(CO)C(O)C(O)C2O)C(O)C(O)C1O` (stereo partly drawn), the TGI in the experiment with SN12C renal was determined as 3.21 µM; with RXF 393 renal it was 3.01 µM; in the experiment with NCI/ADR-RES ovarian it was 3.76 µM; with 786-0 renal, 3.3 µM; in the experiment with M14 melanoma, 4.14 µM; in the experiment on HOP-92 NSCLC it was 3.32 µM. Besides, the TGI is 3.55 µM in the experiment on CAKI-1 renal, 3.22 µM in the experiment with U251 CNS and 4.07 µM with NCI-H23 lung.

Take `C[C@]12CCC(=O)O[C@H]1CCCCO2`: the TGI in the experiment on SN12C renal, in the experiment with RXF 393 renal, with NCI/ADR-RES ovarian, in the experiment on SR leukemia, in the experiment on 786-0 renal and with M14 melanoma was over 100 µM each time. Besides, the TGI with HOP-92 NSCLC is 71.1 µM; in the experiment on CAKI-1 renal, over 100 µM; in the experiment on U251 CNS it was over 100 µM.

As to `C=CCCN1CCc2c([nH]c3ccccc23)C1C(=O)O` (stereo not drawn), the TGI with SN12C renal, with RXF 393 renal, with SR leukemia, in the experiment with M14 melanoma, with HOP-92 NSCLC and in the experiment with CAKI-1 renal was over 100 µM throughout. Further, the TGI in the experiment on U251 CNS and in the experiment on NCI-H23 lung was over 100 µM in each case.

As to `O=C1CCC(c2ccc(Cl)cc2)=NN1c1nsc2ccccc12`, the TGI in the experiment with SN12C renal was 67.3 µM; in the experiment on RXF 393 renal it was 59.6 µM; in the experiment with SR leukemia, 54.8 µM; in the experiment on HOP-92 NSCLC, 71.2 µM; with U251 CNS, over 100 µM; in the experiment with NCI-H23 lung, over 100 µM.

Take `OCC(O)COCn1nncc1Cn1ncc2c(SCc3ccccc3)ncnc21` (stereo not drawn): the TGI in the experiment with SN12C renal, in the experiment on NCI/ADR-RES ovarian, with 786-0 renal, in the experiment on M14 melanoma, in the experiment on BT-549 breast and in the experiment on CAKI-1 renal was over 100 µM each time. For the same compound, the TGI in the experiment on U251 CNS and in the experiment with NCI-H23 lung was over 100 µM each time.

Consider `COc1cc(/C=C(\C#N)C(N)=O)cc(Br)c1O`, for which the GI50 in the experiment with SN12C renal was > 100 µM and 34 µM; with HOP-92 NSCLC it was 21.8 µM and > 100 µM; with NCI-H23 lung, 43 µM and > 100 µM. In addition, the TGI in the experiment on SN12C renal was over 100 µM; with RXF 393 renal it was over 100 µM; with NCI/ADR-RES ovarian it was over 100 µM; in the experiment on HOP-92 NSCLC it was 93.3 µM and > 100 µM; in the experiment on CAKI-1 renal it was over 100 µM; with U251 CNS, over 100 µM. The compound also came in with a TGI in the experiment on NCI-H23 lung of over 100 µM.

On to `COc1ccccc1/C=C1\SC(=S)N(/C=C2\C(=O)Oc3ccccc3C2=O)C1=O`, for which the TGI was over 100 µM in the experiment with NCI/ADR-RES ovarian; over 100 µM in the experiment on 786-0 renal; over 100 µM in the experiment on M14 melanoma; 64.8 µM in the experiment on HOP-92 NSCLC; 80.9 µM in the experiment on BT-549 breast; 3.23 µM in the experiment on CAKI-1 renal. For the same compound, the values for the TGI in the experiment with U251 CNS and in the experiment on NCI-H23 lung were over 100 µM and 10.1 µM, respectively.

Consider `O=Cc1c(C(=O)O)[nH]c(=O)[nH]c1=O`, for which the TGI with SN12C renal, in the experiment with RXF 393 renal, in the experiment on NCI/ADR-RES ovarian, in the experiment with 786-0 renal, with M14 melanoma and with BT-549 breast was over 100 µM throughout. Besides, the TGI in the experiment with CAKI-1 renal, with U251 CNS and in the experiment on NCI-H23 lung was over 100 µM in each case.

On to `CNc1ccc(C(=O)CC(O)CCC(C)C2OC(=O)CC(O)CC(=O)CC(O)CC(O)CC(O)CC(O)CC3(O)CC(O)C(C(=O)OC)C(CC(O[C@@H]4O[C@H](C)[C@@H](O)[C@H](N)[C@@H]4O)/C=C/C=C/C=C/C=C/C=C/C=C/C=C/C2C)O3)cc1` (stereo partly drawn), for which the GI50 was 1.46 µM in the experiment on SN12C renal; 1.72 µM in the experiment with RXF 393 renal; 2.33 µM with SR leukemia; 2.26 µM in the experiment on M14 melanoma; 3.27 µM in the experiment with HOP-92 NSCLC; 3.45 µM in the experiment with BT-549 breast. For the same compound, the GI50 was 1.88 µM in the experiment on CAKI-1 renal, 3.87 µM with U251 CNS and 1.92 µM in the experiment on NCI-H23 lung. For the same compound, the TGI in the experiment with SN12C renal is 2.99 µM; in the experiment on RXF 393 renal, 4.46 µM; in the experiment on SR leukemia it was 5.47 µM; in the experiment with M14 melanoma, 7.32 µM; in the experiment with HOP-92 NSCLC, over 100 µM; in the experiment on BT-549 breast, over 100 µM. The TGI in the experiment with CAKI-1 renal is 4.89 µM; with U251 CNS, 56.4 µM; in the experiment with NCI-H23 lung it was 4.84 µM.

Source of the values: PubChem BioAssay (NCI).
